# Data as given in ChEMBL document CHEMBL4196033, “Potent hydrazone derivatives targeting esophageal cancer cells” (Eur J Med Chem, 2018).
# Active and inactive are the calls of the source. The calls are words filed in the database; no cut-off is given here.
# Assays:
# SMMC-7721 = experiment: Antiproliferative activity against human SMMC7721 cells after 72 hrs by MTT assay; assay type: functional, cell-based; details: SMMC-7721, 72 h
# EC9706 [1] = experiment: Antiproliferative activity against human EC9706 cells after 24 hrs by MTT assay; assay type: functional, cell-based; details: EC9706, 24 h
# EC9706 [2] = experiment: Anticlonogenic activity against human EC9706 cells after 7 days by crystal violet staining based assay; assay type: functional, cell-based
# EC9706 [3] = experiment: Cell cycle arrest in human EC9706 cells assessed as decrease in G2/M phase population at 2 uM after 24 hrs by propidium iodide staining based flow cytometry relative to control; assay type: functional
# ECa-109 cell line [4] = experiment: Cell cycle arrest in human EC109 cells assessed as accumulation at G0/G1 phase after 24 hrs by propidium iodide staining based flow cytometry; assay type: functional
# ECa-109 cell line [5] = experiment: Upregulation of p27 protein expression in human EC109 cells at 2 uM after 24 to 48 hrs by Western blot analysis relative to control; assay type: functional
# ECa-109 cell line [6] = experiment: Induction of morphological changes in human EC109 cells assessed as cell rounding after 48 hrs by Hoechst 33342 staining based fluorescence microscopic method; assay type: functional
# EC9706 [7] = experiment: Induction of apoptosis in human EC9706 cells assessed as live cells at 2 uM after 48 hrs by Annexin V-FITC/propidium iodide staining based flow cytometry (reference value: 85.5 to 96%); assay type: functional
# EC9706 [8] = experiment: Induction of apoptosis in human EC9706 cells assessed as late apoptotic cells at 4 uM after 48 hrs by Annexin V-FITC/propidium iodide staining based flow cytometry (reference value: 1.29 to 1.99%); assay type: functional
# EC9706 [9] = experiment: Induction of apoptosis in human EC9706 cells assessed as live cells at 8 uM after 48 hrs by Annexin V-FITC/propidium iodide staining based flow cytometry (reference value: 85.5 to 96%); assay type: functional
# EC9706 [10] = experiment: Induction of apoptosis in human EC9706 cells assessed as early apoptotic cells at 8 uM after 48 hrs by Annexin V-FITC/propidium iodide staining based flow cytometry (reference value: 0.68 to 1.58%); assay type: functional
# EC9706 [11] = experiment: Induction of apoptosis in human EC9706 cells assessed as late apoptotic cells at 8 uM after 48 hrs by Annexin V-FITC/propidium iodide staining based flow cytometry (reference value: 1.29 to 1.99%); assay type: functional
# EC9706 [12] = experiment: Induction of apoptosis in human EC9706 cells assessed as necrotic cells at 8 uM after 48 hrs by Annexin V-FITC/propidium iodide staining based flow cytometry (reference value: 1.1 to 1.31%); assay type: functional
# ECa-109 cell line [13] = experiment: Induction of apoptosis in human EC109 cells assessed as late apoptotic cells at 2 uM after 48 hrs by Annexin V-FITC/propidium iodide staining based flow cytometry (reference value: 0.2 to 1.74%); assay type: functional
# ECa-109 cell line [14] = experiment: Induction of apoptosis in human EC109 cells assessed as live cells at 4 uM after 48 hrs by Annexin V-FITC/propidium iodide staining based flow cytometry (reference value: 95.2 to 99%); assay type: functional
# ECa-109 cell line [15] = experiment: Induction of apoptosis in human EC109 cells assessed as late apoptotic cells at 8 uM after 48 hrs by Annexin V-FITC/propidium iodide staining based flow cytometry (reference value: 0.2 to 1.74%); assay type: functional
# ECa-109 cell line [16] = experiment: Induction of apoptosis in human EC109 cells assessed as necrotic cells at 8 uM after 48 hrs by Annexin V-FITC/propidium iodide staining based flow cytometry (reference value: 0.74 to 1.18%); assay type: functional
# ECa-109 cell line [17] = experiment: Induction of apoptosis in human EC109 cells after 48 hrs by Annexin V-FITC/propidium iodide staining based flow cytometry; assay type: functional, cell-based
# EC9706 [18] = experiment: Induction of apoptosis in human EC9706 cells assessed as late apoptotic cells at 4 uM after 48 hrs in presence of caspase inhibitor Z-VAD-FMK by Annexin V-FITC/propidium iodide staining based flow cytometry (reference value: 1.27%); assay type: functional
# EC9706 [19] = experiment: Induction of apoptosis in human EC9706 cells assessed as necrotic cells at 4 uM after 48 hrs in presence of caspase inhibitor Z-VAD-FMK by Annexin V-FITC/propidium iodide staining based flow cytometry (reference value: 1.2%); assay type: functional
# ECa-109 cell line [20] = experiment: Induction of apoptosis in human EC109 cells assessed as necrotic cells at 4 uM after 48 hrs in presence of caspase inhibitor Z-VAD-FMK by Annexin V-FITC/propidium iodide staining based flow cytometry (reference value: 2.37%); assay type: functional
# ECa-109 cell line [21] = experiment: Induction of apoptosis in human EC109 cells assessed as early apoptotic cells at 8 uM after 48 hrs in presence of caspase inhibitor Z-VAD-FMK by Annexin V-FITC/propidium iodide staining based flow cytometry (reference value: 0.52%); assay type: functional
# ECa-109 cell line [22] = experiment: Induction of apoptosis in human EC109 cells assessed as late apoptotic cells at 8 uM after 48 hrs in presence of caspase inhibitor Z-VAD-FMK by Annexin V-FITC/propidium iodide staining based flow cytometry (reference value: 0.01%); assay type: functional
# EC9706 [23] = experiment: Induction of ROS generation in human EC9706 cells at 2 uM after 24 hrs by DCFH-DA staining based flow cytometry relative to control; assay type: functional
# ECa-109 cell line [24] = experiment: Induction of ROS generation in human EC109 cells at 4 uM after 24 hrs by DCFH-DA staining based flow cytometry relative to control; assay type: functional
# ECa-109 cell line [25] = experiment: Induction of ROS generation in human EC109 cells at 8 uM after 24 hrs by DCFH-DA staining based flow cytometry relative to control; assay type: functional
# ECa-109 cell line [26] = experiment: Induction of apoptosis in human EC109 cells at 2 to 4 uM after 48 hrs in presence of anti-oxidant NAC by Annexin V-FITC/propidium iodide staining based flow cytometry; assay type: functional, cell-based
# EC9706 [27] = experiment: Induction of apoptosis in human EC9706 cells assessed as increase in cleaved caspase-8 protein expression after 48 hrs by Western blot analysis; assay type: functional, cell-based
# EC9706 [28] = experiment: Induction of apoptosis in human EC9706 cells assessed as increase in cleaved caspase-3 protein expression after 48 hrs by Western blot analysis; assay type: functional, cell-based
# ECa-109 cell line [29] = experiment: Induction of apoptosis in human EC109 cells assessed as increase in cleaved PARP protein expression after 48 hrs by Western blot analysis; assay type: functional, cell-based
# EC9706 [30] = experiment: Induction of apoptosis in human EC9706 cells assessed as increase in tBid protein expression at 2 to 8 uM after 48 hrs by Western blot analysis; assay type: functional, cell-based
# EC9706 [31] = experiment: Effect on Prxs-2 protein expression in human EC9706 cells at 2 to 8 uM after 48 hrs by Western blot analysis; assay type: functional, cell-based
# [32] = Selectivity index, ratio of IC50 for antiproliferative activity against human GES-1 cells after 72 hrs to IC50 for antiproliferative activity against human MGC803 cells after 72 hrs; assay type: toxicity, cell-based; details: GES-1 cells versus MGC803 cells, read-out: Ratio IC50
# Mus musculus [33] = experiment: Acute toxicity in C57BL/6 mouse assessed as histopathological changes in liver at 2 g/kg, ig measured for 2 weeks by hematoxylin and eosin staining based microscopic method; assay type: organism-based; details: in vivo, po, 2000 mg/kg, 336 h
# Mus musculus [34] = experiment: Acute toxicity in C57BL/6 mouse assessed as histopathological changes in lung at 2 g/kg, ig measured for 2 weeks by hematoxylin and eosin staining based microscopic method; assay type: organism-based; details: in vivo, po, 2000 mg/kg, 336 h
structure (smiles),measurement,setting,value
COc1ccc(/C=N/NC(=O)c2cccc(S(=O)(=O)N3CCOCC3)c2)c(O)c1,IC50,SMMC-7721,3.95 µM
same,IC50,EC9706 [1],> 20 µM
same,Activity,EC9706 [2],Active
same,fold change (FC),EC9706 [3],0.28
same,Activity,ECa-109 cell line [4],Dose-dependent effect
same,fold change (FC),ECa-109 cell line [5],1.2
same,Activity,ECa-109 cell line [6],Dose-dependent effect
same,Activity,EC9706 [7],82.8%
same,Activity,EC9706 [8],18.2 - 21.6%
same,Activity,EC9706 [9],29.9 - 61.1%
same,Activity,EC9706 [10],8.64 - 26%
same,Activity,EC9706 [11],25 - 33.1%
same,Activity,EC9706 [12],10.1 - 10.2%
same,Activity,ECa-109 cell line [13],6.84%
same,Activity,ECa-109 cell line [14],27.2 - 63.6%
same,Activity,ECa-109 cell line [15],42.4 - 43%
same,Activity,ECa-109 cell line [16],2.23 - 13%
same,Activity,ECa-109 cell line [17],Dose-dependent effect
same,Activity,EC9706 [18],20.7%
same,Activity,EC9706 [19],15.2%
same,Activity,ECa-109 cell line [20],20.4%
same,Activity,ECa-109 cell line [21],14.1%
same,Activity,ECa-109 cell line [22],21.2%
same,fold change (FC),EC9706 [23],1.16
same,fold change (FC),ECa-109 cell line [24],2.05
same,fold change (FC),ECa-109 cell line [25],2.21
same,Activity,ECa-109 cell line [26],inactive
same,Activity,EC9706 [27],Dose-dependent effect
same,Activity,EC9706 [28],Dose-dependent effect
same,Activity,ECa-109 cell line [29],Dose-dependent effect
same,Activity,EC9706 [30],Active
same,Activity,EC9706 [31],Active
same,selectivity ratio at 72 h,[32],7.2
same,Activity,Mus musculus [33],Non-Toxic
same,Activity,Mus musculus [34],Non-Toxic
